Results published in ChEMBL document CHEMBL1201862, “PubChem BioAssay data set” (2004).
Activity calls are given as the source filed them. Cut-off read from the data, not from the text of the source, for most assays here: actives have a measured IC50 and inactives only a lower limit.

Legend:
[1] = target: Glucose-6-phosphate 1-dehydrogenase (Homo sapiens, UniProt P11413); assay: inhibition of Homo sapiens G6PD, dose series – biochemical, fluorescence, selectivity assay for P. falciparum G6PD inhibitor project, dose response (AID 504792); type: functional
Chain of Glucose-6-phosphate 1-dehydrogenase (P11413 whole entry): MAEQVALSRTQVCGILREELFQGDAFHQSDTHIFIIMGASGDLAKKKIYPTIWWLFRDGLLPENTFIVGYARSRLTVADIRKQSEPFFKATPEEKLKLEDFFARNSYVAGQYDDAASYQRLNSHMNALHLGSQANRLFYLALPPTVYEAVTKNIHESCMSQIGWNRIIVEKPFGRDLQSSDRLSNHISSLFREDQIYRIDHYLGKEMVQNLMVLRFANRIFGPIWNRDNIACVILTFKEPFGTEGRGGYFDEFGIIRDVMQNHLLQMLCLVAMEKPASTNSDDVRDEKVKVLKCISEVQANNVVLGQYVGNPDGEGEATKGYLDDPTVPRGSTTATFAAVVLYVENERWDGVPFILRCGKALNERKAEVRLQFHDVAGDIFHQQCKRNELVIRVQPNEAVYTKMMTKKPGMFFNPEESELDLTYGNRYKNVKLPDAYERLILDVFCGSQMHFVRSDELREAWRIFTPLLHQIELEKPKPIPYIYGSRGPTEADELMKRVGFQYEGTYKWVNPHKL

[2] = target: 26S proteasome non-ATPase regulatory subunit 14 (Homo sapiens, UniProt O00487); assay: inhibition of proteasome subunit RPN11 – biochemical, fluorescence polarization, uHTS hits, confirmation (AID 602368); type: functional
Chain of 26S proteasome non-ATPase regulatory subunit 14 (O00487 whole entry): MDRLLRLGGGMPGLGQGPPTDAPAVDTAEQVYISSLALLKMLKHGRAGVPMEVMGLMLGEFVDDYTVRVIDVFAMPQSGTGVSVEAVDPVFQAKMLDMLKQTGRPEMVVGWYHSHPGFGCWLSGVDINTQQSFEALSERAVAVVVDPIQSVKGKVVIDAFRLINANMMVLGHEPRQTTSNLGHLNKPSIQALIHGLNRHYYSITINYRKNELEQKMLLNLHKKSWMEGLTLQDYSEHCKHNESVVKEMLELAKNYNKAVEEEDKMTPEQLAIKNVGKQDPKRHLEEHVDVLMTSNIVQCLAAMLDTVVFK

[3] = target: 72 kDa type IV collagenase (Homo sapiens, UniProt P08253); assay: Dose Response validation of uHTS RPN11 inhibitor hits using a MMP-2 Fluorescence assay.; type: functional
Chain of 72 kDa type IV collagenase (P08253 whole entry): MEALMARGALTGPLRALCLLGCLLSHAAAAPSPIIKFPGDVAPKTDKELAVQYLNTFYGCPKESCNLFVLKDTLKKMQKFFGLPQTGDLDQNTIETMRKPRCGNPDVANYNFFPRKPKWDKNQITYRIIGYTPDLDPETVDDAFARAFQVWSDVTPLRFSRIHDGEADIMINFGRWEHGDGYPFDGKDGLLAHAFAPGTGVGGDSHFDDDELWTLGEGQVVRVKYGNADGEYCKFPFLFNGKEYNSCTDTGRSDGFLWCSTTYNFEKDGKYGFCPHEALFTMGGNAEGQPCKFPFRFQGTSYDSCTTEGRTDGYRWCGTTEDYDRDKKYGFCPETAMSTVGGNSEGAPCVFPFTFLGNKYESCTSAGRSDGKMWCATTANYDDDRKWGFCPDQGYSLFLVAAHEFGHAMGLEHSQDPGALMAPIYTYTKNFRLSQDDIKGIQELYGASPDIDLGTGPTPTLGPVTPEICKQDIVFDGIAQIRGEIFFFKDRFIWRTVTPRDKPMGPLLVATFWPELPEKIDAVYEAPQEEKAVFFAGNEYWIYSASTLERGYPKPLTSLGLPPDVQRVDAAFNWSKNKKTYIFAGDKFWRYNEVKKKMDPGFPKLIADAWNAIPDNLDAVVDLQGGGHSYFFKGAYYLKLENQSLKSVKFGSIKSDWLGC

Prothrombin = Prothrombin (Bos taurus, UniProt P00735); assay: thrombin protease inhibitors – biochemical, fluorescence polarization, uHTS hits, dose response (AID 602369); type: functional
H9c2 = assay: cells; type: functional, cell-based; settings: Rattus norvegicus, H9c2, Myocardium;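 note: confirmatory concentration-response retest of ultra-high-throughput screening hits for modulation of myocardial damage; cell death induced by hydrogen peroxide oxidative stress; compound pretreatment for 60 min then peroxide exposure for 2 h; potency is for protecting the cells against peroxide damage rather than for killing them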
HEK293 = assay: EBV LMP1 TES2 canonical NF-kB signalling blockers – cell-based, HEK293, luciferase, cherry-pick, dose response (AID 588343); type: functional; settings: Homo sapiens
[4] = target: T1, Sentrin-specific protease 7 (Homo sapiens, UniProt Q9BQF6); type: functional;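 note: Luminescence-based dose-response confirmation of ultra-high-throughput screening hits, measuring inhibition of SENP7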
T1 sequence (Q9BQF6 whole entry): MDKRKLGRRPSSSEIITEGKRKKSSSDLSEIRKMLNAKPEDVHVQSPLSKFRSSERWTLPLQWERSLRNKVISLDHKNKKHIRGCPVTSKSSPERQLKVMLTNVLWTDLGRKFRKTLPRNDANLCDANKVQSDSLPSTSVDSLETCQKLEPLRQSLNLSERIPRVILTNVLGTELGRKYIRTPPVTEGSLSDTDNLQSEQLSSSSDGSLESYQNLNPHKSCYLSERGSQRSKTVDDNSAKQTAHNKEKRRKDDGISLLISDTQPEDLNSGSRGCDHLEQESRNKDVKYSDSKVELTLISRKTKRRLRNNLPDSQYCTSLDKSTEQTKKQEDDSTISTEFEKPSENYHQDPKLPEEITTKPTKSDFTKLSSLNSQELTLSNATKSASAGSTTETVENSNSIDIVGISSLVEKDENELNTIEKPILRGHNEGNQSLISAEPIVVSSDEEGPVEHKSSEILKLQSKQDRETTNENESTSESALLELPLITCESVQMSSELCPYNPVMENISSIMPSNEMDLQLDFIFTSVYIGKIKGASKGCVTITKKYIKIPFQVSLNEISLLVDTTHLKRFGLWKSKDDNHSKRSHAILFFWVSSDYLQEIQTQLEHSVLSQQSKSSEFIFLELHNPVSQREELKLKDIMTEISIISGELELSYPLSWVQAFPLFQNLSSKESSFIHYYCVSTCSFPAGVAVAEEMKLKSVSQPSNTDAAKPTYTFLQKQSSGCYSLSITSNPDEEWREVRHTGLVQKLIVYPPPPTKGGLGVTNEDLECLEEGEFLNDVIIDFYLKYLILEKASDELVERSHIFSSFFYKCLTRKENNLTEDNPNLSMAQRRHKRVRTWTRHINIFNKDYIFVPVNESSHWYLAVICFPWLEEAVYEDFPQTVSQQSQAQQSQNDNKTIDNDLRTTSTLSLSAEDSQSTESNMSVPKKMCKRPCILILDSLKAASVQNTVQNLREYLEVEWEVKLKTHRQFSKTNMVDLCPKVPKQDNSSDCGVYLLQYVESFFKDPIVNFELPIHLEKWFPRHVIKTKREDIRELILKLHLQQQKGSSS

[5] = target: T2, Sentrin-specific protease 6 (Homo sapiens, UniProt Q9GZR1); type: functional;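 note: Luminescence-based dose-response confirmatory assay of SENP6 inhibition, following up an ultra-high-throughput screen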
T2 sequence (Q9GZR1 whole entry): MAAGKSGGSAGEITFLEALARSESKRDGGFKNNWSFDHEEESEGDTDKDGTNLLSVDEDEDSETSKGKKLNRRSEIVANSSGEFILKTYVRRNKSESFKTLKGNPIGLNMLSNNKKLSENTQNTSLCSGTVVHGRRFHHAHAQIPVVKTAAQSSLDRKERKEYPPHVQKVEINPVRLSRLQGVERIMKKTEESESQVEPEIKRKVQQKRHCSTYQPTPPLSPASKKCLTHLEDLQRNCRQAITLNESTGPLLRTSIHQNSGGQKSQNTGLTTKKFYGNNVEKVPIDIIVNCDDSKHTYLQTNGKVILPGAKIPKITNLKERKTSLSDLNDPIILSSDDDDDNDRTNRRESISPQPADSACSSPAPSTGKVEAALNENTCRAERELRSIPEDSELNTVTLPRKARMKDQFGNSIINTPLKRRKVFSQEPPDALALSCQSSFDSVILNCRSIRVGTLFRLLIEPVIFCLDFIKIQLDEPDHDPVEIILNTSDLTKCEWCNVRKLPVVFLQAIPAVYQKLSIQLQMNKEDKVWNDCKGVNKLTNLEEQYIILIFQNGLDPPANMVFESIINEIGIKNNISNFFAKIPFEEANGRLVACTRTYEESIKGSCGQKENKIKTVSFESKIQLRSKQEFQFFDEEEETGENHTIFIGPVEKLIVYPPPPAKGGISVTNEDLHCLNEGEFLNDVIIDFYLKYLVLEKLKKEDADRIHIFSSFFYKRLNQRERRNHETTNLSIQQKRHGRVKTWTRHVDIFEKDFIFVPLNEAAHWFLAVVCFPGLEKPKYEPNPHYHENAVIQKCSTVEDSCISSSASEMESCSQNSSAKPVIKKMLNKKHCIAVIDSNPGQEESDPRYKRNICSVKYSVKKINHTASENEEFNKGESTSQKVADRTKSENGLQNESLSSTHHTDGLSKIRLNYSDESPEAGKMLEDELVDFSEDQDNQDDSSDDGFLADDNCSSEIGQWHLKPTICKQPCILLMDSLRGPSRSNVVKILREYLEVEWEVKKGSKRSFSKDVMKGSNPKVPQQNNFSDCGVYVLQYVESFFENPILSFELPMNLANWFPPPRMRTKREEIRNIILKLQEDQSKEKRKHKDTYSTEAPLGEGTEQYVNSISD

[6] = target: T3, Sentrin-specific protease 8 (Homo sapiens, UniProt Q96LD8); type: functional;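 note: luminescence read-out of SENP8 inhibition, dose-response confirmation following an ultra-high-throughput screen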
T3 sequence (Q96LD8 whole entry): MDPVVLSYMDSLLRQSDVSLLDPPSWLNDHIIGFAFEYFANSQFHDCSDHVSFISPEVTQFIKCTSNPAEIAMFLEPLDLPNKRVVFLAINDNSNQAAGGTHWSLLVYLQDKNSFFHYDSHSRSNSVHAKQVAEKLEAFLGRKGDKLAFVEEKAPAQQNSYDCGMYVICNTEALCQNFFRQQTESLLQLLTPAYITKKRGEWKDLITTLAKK

SMILES	IC50 [1]	IC50 [2]	IC50 [3]	IC50 (Prothrombin)	further results
COc1cccc(CNc2ccc3[nH]c(O)nc3c2)c1OCc1ccc(F)cc1	> 80 µM (inactive)				
CCn1c([N+](=O)[O-])nc2c1c(=O)[nH]c(=O)n2C	> 80 µM (inactive)				
CCOC(=O)Cc1csc(NC(=O)c2sc3nc4ccc(C)cc4cc3c2N)n1		33.9 µM (active)	> 100 µM (inactive)	77.9 µM (active)	
COc1ccc(OC)c(N2C(=O)/C(=C/Nc3c(C)n(C)n(-c4ccccc4)c3=O)C(=O)NC2=S)c1		34.7 µM (active)	38.7 µM (active)	51.9 µM (active)	
COc1ccccc1NC(=O)COc1ccc(C(=O)OCC(=O)NC(C)(C)C)cc1OC					IC50 (H9c2): > 79 µM (inactive)
COc1ccc(CCn2c(NN=C3CCCC3)nc3c2c(=O)[nH]c(=O)n3C)cc1	> 80 µM (inactive)				
COc1ccccc1NC(=O)CSc1nc(N)c(C#N)cc1C#N		36.2 µM (active)	> 100 µM (inactive)	55.8 µM (active)	
CCOc1ccc(NC(=O)c2ccc(N3CC4CC(C3)c3cccc(=O)n3C4)c(NC(=O)c3cccnc3)c2)cc1 (configuration not stated)					AC50 (HEK293): > 350 µM (inactive)
CC(=O)Nc1nc(COc2ccc3ccccc3c2)cs1					IC50 [4]: 5.88 µM (active); IC50 [5]: 8.61 µM (active); IC50 [6]: 9.93 µM (active)
